Experimental findings from ChEMBL document CHEMBL5223164 (ACS Med Chem Lett, 2023) are described below.

Data set [1] deals with Somatostatin receptor type 2 (Homo sapiens, UniProt P30874).
Description: Agonist activity at human SST2 receptor expressed in CHO-K1 cells assessed as inhibition of NKH477-induced intracellular cAMP accumulation incubated for 20 mins by HTRF assay
In data set [2] the target is Somatostatin receptor type 1 (Homo sapiens, UniProt P30872). The data set is described as follows: Agonist activity at human SST1 receptor expressed in CHO-K1 cells assessed as inhibition of NKH477-induced intracellular cAMP accumulation incubated for 20 mins by HTRF assay. Format: cell-based.
Sequence of Somatostatin receptor type 1 (P30872 whole entry): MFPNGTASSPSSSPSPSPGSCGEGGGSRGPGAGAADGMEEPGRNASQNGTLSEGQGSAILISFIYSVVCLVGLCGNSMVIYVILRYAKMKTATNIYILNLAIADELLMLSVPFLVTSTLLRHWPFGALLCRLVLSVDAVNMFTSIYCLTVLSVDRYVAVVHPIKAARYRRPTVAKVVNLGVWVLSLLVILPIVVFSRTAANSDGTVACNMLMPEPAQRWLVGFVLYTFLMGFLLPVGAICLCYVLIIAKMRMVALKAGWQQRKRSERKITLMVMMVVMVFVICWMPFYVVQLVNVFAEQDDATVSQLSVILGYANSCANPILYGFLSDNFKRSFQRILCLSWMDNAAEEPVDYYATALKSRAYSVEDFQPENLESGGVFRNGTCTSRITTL
Data set [3] addresses Somatostatin receptor type 4 (Homo sapiens, UniProt P31391). The data set is described as follows: Agonist activity at human SST4 receptor expressed in CHO-K1 cells assessed as inhibition of NKH477-induced intracellular cAMP accumulation incubated for 20 mins by HTRF assay. In kind it is cell-based. On the technique in general: Cyclic AMP is a second messenger, typically raised through Gs and lowered through Gi signalling.

The target of data set [4] is Somatostatin receptor type 3 (Homo sapiens, UniProt P32745). Nature of the data set: Agonist activity at human SST3 receptor expressed in CHO-K1 cells assessed as inhibition of NKH477-induced intracellular cAMP accumulation incubated for 20 mins by HTRF assay. In kind it is cell-based.
Sequence of Somatostatin receptor type 3 (P32745 whole entry): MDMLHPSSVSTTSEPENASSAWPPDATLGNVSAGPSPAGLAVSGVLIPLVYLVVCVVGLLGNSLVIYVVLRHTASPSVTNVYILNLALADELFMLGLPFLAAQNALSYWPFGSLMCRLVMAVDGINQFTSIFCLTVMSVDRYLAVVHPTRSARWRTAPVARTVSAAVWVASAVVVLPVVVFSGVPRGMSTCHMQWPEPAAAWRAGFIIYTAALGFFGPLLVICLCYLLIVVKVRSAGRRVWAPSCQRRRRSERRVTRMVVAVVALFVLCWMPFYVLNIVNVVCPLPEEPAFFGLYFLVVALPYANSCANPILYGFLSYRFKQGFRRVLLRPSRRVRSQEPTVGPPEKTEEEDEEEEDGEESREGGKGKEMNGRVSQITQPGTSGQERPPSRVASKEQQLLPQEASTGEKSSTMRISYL
The target in data set [5] is Voltage-gated inwardly rectifying potassium channel KCNH2 (Homo sapiens, UniProt Q12809). Nature of the data set: Inhibition of hERG by fluorescence polarization assay. In kind it is toxicity. A general note: Block of hERG is tested as a sign of cardiac risk.
In data set [6] the target is Somatostatin receptor type 5 (Homo sapiens, UniProt P35346). Nature of the data set: Agonist activity at human SST5 receptor expressed in CHO-K1 cells assessed as inhibition of NKH477-induced intracellular cAMP accumulation incubated for 20 mins by HTRF assay. Format: cell-based.
Sequence of Somatostatin receptor type 5 (P35346 whole entry): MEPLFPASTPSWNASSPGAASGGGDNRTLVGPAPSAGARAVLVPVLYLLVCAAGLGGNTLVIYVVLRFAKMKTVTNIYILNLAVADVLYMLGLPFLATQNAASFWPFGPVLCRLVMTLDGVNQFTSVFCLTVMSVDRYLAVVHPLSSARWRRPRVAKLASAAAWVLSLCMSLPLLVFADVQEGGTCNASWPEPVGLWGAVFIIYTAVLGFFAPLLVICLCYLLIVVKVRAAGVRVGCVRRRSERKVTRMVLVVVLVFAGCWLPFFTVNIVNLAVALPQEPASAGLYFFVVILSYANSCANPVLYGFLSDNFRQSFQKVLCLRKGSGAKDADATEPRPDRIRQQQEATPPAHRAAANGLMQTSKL
For data set [7], the target named is T1, Cytochrome P450 2C19 (Homo sapiens, UniProt P33261). The data set is described as follows: Inhibition of human CYP2C19 expressed in insect cell microsomes at 10 uM in presence of NADP+ by fluorescence based analysis. Format: ADME, Microsome.
T1 sequence (P33261 whole entry): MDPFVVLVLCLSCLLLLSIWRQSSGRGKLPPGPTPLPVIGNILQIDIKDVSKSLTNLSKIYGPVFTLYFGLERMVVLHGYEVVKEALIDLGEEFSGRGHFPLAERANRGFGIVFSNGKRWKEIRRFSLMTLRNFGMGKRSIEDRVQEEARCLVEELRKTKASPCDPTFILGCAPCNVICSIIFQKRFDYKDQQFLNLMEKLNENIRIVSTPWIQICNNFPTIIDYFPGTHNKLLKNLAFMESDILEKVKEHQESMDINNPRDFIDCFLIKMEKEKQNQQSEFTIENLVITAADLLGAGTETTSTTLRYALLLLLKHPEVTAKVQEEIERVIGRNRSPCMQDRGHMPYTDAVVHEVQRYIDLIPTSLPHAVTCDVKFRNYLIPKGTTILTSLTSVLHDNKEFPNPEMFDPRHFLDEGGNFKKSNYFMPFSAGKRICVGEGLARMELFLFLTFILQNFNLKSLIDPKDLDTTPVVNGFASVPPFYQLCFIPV
Data set [8] concerns the target T1, Cytochrome P450 2C19. Nature of the data set: Inhibition of human CYP2C19 expressed in insect cell microsomes in presence of NADP+ by fluorescence based analysis.
Data set [9] deals with T2, Cytochrome P450 2D6 (Homo sapiens, UniProt P10635). The data set is described as follows: Inhibition of human CYP2D6 expressed in insect cell microsomes at 10 uM in presence of NADP+ by fluorescence based analysis. Format: ADME, Microsome.
T2 sequence (P10635 whole entry): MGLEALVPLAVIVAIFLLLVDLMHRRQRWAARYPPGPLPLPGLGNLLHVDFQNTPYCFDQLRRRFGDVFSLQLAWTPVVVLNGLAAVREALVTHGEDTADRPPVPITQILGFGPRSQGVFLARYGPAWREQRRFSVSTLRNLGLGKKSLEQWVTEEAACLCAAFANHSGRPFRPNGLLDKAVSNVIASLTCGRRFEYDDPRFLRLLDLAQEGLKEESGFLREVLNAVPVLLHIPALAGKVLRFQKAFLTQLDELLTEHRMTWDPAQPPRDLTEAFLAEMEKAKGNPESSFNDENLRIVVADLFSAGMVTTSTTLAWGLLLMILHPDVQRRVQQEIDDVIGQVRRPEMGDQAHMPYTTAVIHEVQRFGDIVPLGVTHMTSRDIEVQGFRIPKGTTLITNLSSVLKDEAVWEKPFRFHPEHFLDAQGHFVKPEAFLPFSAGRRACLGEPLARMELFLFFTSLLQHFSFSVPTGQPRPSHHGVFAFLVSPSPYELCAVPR
The target of data set [10] is T3, Cytochrome P450 2C9 (Homo sapiens, UniProt P11712). Nature of the data set: Inhibition of human CYP2C9 expressed in insect cell microsomes at 10 uM in presence of NADP+ by fluorescence based analysis. Format: ADME, Microsome.
T3 sequence (P11712 whole entry): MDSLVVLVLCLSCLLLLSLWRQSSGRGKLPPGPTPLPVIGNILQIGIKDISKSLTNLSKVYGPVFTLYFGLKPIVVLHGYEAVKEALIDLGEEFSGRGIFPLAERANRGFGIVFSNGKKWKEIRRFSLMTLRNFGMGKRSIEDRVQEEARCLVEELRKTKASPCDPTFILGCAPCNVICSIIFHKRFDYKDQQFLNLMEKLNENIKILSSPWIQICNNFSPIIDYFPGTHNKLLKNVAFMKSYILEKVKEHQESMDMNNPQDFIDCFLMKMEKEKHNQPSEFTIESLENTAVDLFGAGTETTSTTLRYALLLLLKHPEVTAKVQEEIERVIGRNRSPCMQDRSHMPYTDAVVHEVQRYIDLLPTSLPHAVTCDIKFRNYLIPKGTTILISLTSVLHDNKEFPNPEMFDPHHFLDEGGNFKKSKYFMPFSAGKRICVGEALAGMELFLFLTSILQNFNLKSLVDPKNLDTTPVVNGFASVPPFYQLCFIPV
Data set [11] deals with T3, Cytochrome P450 2C9. The data set is described as follows: Inhibition of human CYP2C9 expressed in insect cell microsomes in presence of NADP+ by fluorescence based analysis.
The target in data set [12] is T4, Cytochrome P450 3A4 (Homo sapiens, UniProt P08684). The data set is described as follows: Inhibition of human CYP3A4 expressed in insect cell microsomes in presence of NADP+ by fluorescence based analysis.
T4 sequence (P08684 whole entry): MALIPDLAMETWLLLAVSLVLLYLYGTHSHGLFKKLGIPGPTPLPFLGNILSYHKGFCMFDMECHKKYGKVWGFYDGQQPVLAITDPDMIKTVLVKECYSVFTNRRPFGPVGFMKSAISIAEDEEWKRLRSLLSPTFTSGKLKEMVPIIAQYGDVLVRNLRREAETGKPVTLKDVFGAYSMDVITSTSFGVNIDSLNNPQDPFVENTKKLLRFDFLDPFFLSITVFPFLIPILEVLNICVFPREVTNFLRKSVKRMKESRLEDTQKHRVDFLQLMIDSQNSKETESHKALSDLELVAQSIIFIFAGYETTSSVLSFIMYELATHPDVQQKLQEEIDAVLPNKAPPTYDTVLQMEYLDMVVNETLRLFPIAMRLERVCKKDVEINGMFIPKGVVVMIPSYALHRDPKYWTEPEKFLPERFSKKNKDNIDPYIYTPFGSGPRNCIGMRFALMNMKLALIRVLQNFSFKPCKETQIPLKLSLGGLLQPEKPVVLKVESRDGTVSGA
For data set [13], the target named is T2, Cytochrome P450 2D6. Nature of the data set: Inhibition of human CYP2D6 expressed in insect cell microsomes in presence of NADP+ by fluorescence based analysis.
The target in data set [14] is T4, Cytochrome P450 3A4. The data set is described as follows: Inhibition of human CYP3A4 expressed in insect cell microsomes at 10 uM in presence of NADP+ by fluorescence based analysis. In kind it is ADME, Microsome.
Data set [15] in a line: in vivo. The note with it: beagle, dog, po, 10 mg/kg.
Data set [16] is described as follows: in vivo. The note with it: Sprague-Dawley, rat, po, 10 mg/kg.
The nature of data set [17]: in vivo. As to conditions: beagle, dog, po, 10 mg/kg. The source holds these as a separate data set.
The nature of data set [18]: Half life in Sprague-Dawley rat at 2.5 mg/kg, iv. The note with it: in vivo.
Data set [19] is described as follows: Clearance in Sprague-Dawley rat at 2.5 mg/kg, iv. As to conditions: in vivo.
Data set [20] can be described thus: Volume of distribution at steady state in Sprague-Dawley rat at 2.5 mg/kg, iv. As to conditions: in vivo.
Data set [21] deals with Somatostatin receptor type 2 (Canis lupus familiaris, UniProt Q49LX6). The data set is described as follows: Agonist activity at dog SST2 receptor.
Sequence of Somatostatin receptor type 2 (Canis lupus familiaris, UniProt Q49LX6) (Q49LX6 whole entry): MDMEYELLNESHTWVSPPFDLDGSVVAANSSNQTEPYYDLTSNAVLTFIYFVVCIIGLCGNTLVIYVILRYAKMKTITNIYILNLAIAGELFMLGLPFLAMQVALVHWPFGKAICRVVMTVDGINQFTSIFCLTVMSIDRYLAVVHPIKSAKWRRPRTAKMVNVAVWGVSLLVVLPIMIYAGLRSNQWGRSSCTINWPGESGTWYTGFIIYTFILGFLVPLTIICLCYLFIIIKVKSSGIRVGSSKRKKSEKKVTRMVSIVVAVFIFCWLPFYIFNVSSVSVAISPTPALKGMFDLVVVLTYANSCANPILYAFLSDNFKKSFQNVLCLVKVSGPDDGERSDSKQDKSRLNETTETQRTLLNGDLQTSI
The nature of data set [22]: in vivo. The note with it: Sprague-Dawley, rat, po, 10 mg/kg. The source holds these as a separate data set.
Data set [23] in a line: Volume of distribution at steady state in Beagle dog at 2.5 mg/kg, iv. As to conditions: in vivo.
Data set [24] in a line: Half life in Beagle dog at 2.5 mg/kg, iv. The note with it: in vivo.
Data set [25] can be described thus: Clearance in Beagle dog at 2.5 mg/kg, iv. The note with it: in vivo.
Data set [26] deals with Somatostatin receptor type 2 (Rattus norvegicus, UniProt P30680). The data set is described as follows: Agonist activity at rat SST2 receptor.
Sequence of Somatostatin receptor type 2 (Rattus norvegicus, UniProt P30680) (P30680 whole entry): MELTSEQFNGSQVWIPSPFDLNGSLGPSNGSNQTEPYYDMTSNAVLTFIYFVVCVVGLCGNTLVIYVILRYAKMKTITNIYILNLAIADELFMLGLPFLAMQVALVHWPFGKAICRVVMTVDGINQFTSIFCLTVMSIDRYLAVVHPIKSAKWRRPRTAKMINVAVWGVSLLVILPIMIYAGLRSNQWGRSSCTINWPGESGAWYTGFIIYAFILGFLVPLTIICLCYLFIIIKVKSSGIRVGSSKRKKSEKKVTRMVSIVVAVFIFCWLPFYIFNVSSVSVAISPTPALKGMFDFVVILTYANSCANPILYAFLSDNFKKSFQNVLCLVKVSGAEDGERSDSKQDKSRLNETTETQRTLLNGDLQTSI

Sequence of Somatostatin receptor type 2 (Homo sapiens, UniProt P30874) (P30874 whole entry): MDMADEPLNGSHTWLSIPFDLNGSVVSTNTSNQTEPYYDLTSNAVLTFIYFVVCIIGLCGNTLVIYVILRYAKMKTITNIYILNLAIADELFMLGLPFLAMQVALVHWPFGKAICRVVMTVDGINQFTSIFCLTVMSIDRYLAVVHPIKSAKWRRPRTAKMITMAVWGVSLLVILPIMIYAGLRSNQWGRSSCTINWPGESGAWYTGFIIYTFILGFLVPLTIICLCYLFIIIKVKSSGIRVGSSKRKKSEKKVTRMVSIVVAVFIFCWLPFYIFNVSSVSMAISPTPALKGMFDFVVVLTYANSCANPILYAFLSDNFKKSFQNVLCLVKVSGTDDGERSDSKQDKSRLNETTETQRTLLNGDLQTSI
Sequence of Somatostatin receptor type 4 (P31391 whole entry): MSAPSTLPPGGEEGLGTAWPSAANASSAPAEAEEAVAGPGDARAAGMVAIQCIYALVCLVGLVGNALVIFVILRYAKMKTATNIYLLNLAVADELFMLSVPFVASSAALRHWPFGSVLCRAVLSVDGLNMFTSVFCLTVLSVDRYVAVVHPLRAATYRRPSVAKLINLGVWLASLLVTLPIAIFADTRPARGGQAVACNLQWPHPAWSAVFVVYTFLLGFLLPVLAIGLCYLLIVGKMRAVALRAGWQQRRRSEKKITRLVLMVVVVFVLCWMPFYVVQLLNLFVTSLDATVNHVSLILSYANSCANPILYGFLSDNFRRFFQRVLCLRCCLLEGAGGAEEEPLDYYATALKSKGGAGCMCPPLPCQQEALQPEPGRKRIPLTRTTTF

In general, EC50 refers to the concentration that produces a half-maximal response. Turning to `N#Cc1cccc(-c2ccc3ncc(-c4cc(F)cc(F)c4)c(N4CCC(N)CC4)c3c2)c1`, the EC50 in [1] was 1.4 nM.

Turning to `NC1CCN(c2c(-c3cc(Cl)cc(Cl)c3)cnc3ccccc23)CC1`, in data set [1], a half-maximal response (EC50) required 140 nM.

By IC50 is commonly meant the concentration that inhibits the measured activity by half. Regarding `N#Cc1cccc(-c2ccc3ncc(-c4cccc(F)c4)c(N4CCC(N)CC4)c3c2)c1O`, the EC50 in [2] is more than 1000 nM; in data set [3], 1000 nM; in data set [4], more than 1000 nM; in [6], more than 1000 nM. The compound further showed a half-inhibitory concentration (IC50) in data set [5] of more than 10000 nM.

Take `N#Cc1cc(F)cc(-c2ccc3ncc(-c4cc(F)cc(F)c4)c(N4CCC(N)CC4)c3c2)c1O`: the “inhibition (INH)” value at Cytochrome P450 2C19 [7], on Cytochrome P450 2D6 [9], on Cytochrome P450 2C9 [10] and on Cytochrome P450 3A4 [14] was “Not Active” each time. For the same compound, the EC50 in [2] is more than 1000 nM; in data set [1], 0.34 nM; in data set [3], more than 1000 nM; in data set [6], more than 1000 nM. Also, the IC50 on Cytochrome P450 2C19 [8] is 3980 nM; at Cytochrome P450 2C9 [11] it was 6310 nM; at Cytochrome P450 3A4 [12] it was 10000 nM; in [5] it was 10000 nM; on Cytochrome P450 2D6 [13], more than 10000 nM.

As to `NC1CCN(c2c(-c3cc(F)cc(F)c3)cnc3ccc(-c4ccccc4O)cc23)CC1`, the 50% effective concentration (EC50) in data set [1] is 3.4 nM.

For `NC1CCN(c2c(-c3cc(F)cc(F)c3)cnc3ccc(-c4cccc(F)c4O)cc23)CC1`, the EC50 in [2] was more than 1000 nM; in data set [3] it was 25.1 nM; in data set [4], more than 1000 nM; in data set [6], more than 1000 nM. Also, inhibition in [5] was half-maximal at 1000 nM (IC50).

On to `NC1CCN(c2c(-c3cc(F)cc(F)c3)cnc3ccc(-c4cccc(O)c4)cc23)CC1`, for which the 50% effective concentration (EC50) in data set [2] was more than 1000 nM; in data set [3] it was 15.8 nM; in data set [4] it was more than 1000 nM; in data set [6] it was more than 1000 nM. In data set [5], the 50% inhibitory concentration (IC50) was less than 1000 nM.

Regarding `COc1cc(F)cc(-c2cnc3ccc(-c4cccc(C#N)c4O)cc3c2N2CCC(N)CC2)c1`, the EC50 in data set [2], in [3], in [4] and in [6] was more than 1000 nM each time.

For the compound `Cc1cc(F)cc(-c2cnc3ccc(-c4cccc(C#N)c4O)cc3c2N2CCC(N)CC2)c1`, the EC50 is more than 1000 nM in [2]; 0.17 nM in [1]; more than 1000 nM in data set [3]; more than 1000 nM in data set [4]; more than 1000 nM in data set [6].

As a reminder, the AUC(0-inf) is total exposure, with the tail of the curve extrapolated. Broadly, the Cmax is the maximum level reached in the sampled fluid or tissue. Usually half-life stands for the time needed for the level to fall by half in the phase considered. Low readings indicate rapid decline, high ones slow decline. A word on the clearance: it is the rate of elimination divided by the concentration. The low end stands for inefficient removal, the high end for efficient removal. Broadly, the Vd is a proportionality between amount in the body and measured concentration, not a real space. With `N#Cc1cccc(-c2ccc3ncc(-c4cc(F)cc(F)c4)c(N4CCC(N)CC4)c3c2)c1O` [PALTUSOTINE], the AUC(0-inf) in the data set “in vivo [15]” was found to be 10400 ng·h/mL; in the data set “in vivo [16]”, 1610 ng·h/mL. For the same compound, the “inhibition (INH)” value on Cytochrome P450 2C19 [7], at Cytochrome P450 2D6 [9], on Cytochrome P450 2C9 [10] and at Cytochrome P450 3A4 [14] was “Not Active” each time. Moreover, the EC50 in data set [2] is more than 1000 nM; in data set [3] it was 1000 nM; in data set [4], more than 1000 nM; in data set [21] it was 6.6 nM; in [6], more than 1000 nM; in data set [26] it was 1.2 nM. The IC50 on Cytochrome P450 2C19 [8] was 5010 nM; on Cytochrome P450 2C9 [11], 7940 nM; on Cytochrome P450 3A4 [12], more than 10000 nM; on Cytochrome P450 2D6 [13], more than 10000 nM. Besides, the Cmax in the data set “in vivo [17]” came to 1370 ng/mL; in “in vivo [22]” it was 129 ng/mL. The results for the half-life in data set [18] and in data set [24] were 2.8 h and 7.5 h, respectively. Moreover, the clearance is 9.1 mL/min/kg in data set [19] and 9.4 mL/min/kg in data set [25]. Further, the Vd was 1.5 L/kg in data set [20] and 3.5 L/kg in [23].
